From PubChem BioAssay (NCI)
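Grown in 96-well plates, cells were treated for 48 hours with each compound at five concentrations. Insufficient inhibition: endpoint recorded as highest concentration tested. At the TGI there is no net growth.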 Where a SMILES comes first, the peptide text is derived from it. [ ]: non-standard residue; d: D form. The star is where a group is joined. Bn2Val = CC(C)[C@@H](C(=O)*)N(Cc1ccccc1)Cc1ccccc1; NHPiperonyl = c1cc2c(cc1CN*)OCO2; NMeV = CN[C@H](C(=O)O)C(C)C; dNMeA = CN[C@H](C)C(=O)O

Columns and labels:
Experiment in all cases: NCI-60 cell line screen, 48 h
[1] = test system: MCF7 breast
[2] = test system: A549 NSCLC
[3] = test system: RXF 393 renal
[4] = test system: MDA-N
[5] = test system: COLO 205 colon
[6] = test system: SK-MEL-28 melanoma
[7] = test system: OVCAR-3 ovarian
[8] = test system: MDA-MB-435
[9] = test system: SK-OV-3 ovarian
[10] = test system: SNB-75 CNS
[11] = test system: SF-539 CNS
[12] = test system: A498 renal
[13] = test system: EKVX NSCLC
[14] = test system: SNB-19 CNS
[15] = test system: UACC-62 melanoma
[16] = test system: MOLT-4 leukemia
[17] = test system: SR leukemia
[18] = test system: IGROV1 ovarian
[19] = test system: NCI-H522 lung

Row | SMILES | TGI [1] [µM] | TGI [2] [µM] | TGI [3] [µM] | TGI [4] [µM] | TGI [5] [µM] | TGI [6] [µM] | TGI [7] [µM] | TGI [8] [µM] | TGI [9] [µM] | TGI [10] [µM] | TGI [11] [µM] | TGI [12] [µM] | TGI [13] [µM] | TGI [14] [µM] | TGI [15] [µM] | TGI [16] [µM] | TGI [17] [µM] | TGI [18] [µM] | TGI [19] [µM]
1 | COc1cccc([C@@H]2C/C(=N\NC(=O)C(=O)N[C@@H](C)c3ccccc3)c3cc4c(cc3N2)OCO4)c1 | > 100 | > 100 | > 100 | 28.4 | 68.8 | > 100 | > 100 | 17.2 | > 100 | > 100 | > 100 | > 100 | > 100 | > 100 | > 100 | > 100 | – | – | –
2 | O=C(CC(C(=O)c1cccs1)c1ccsc1)c1ccc(Cl)cc1 (stereo not drawn) | > 100 | > 100 | – | > 100 | > 100 | > 100 | – | > 100 | > 100 | > 100 | > 100 | > 100 | > 100 | > 100 | > 100 | > 100 | > 100 | > 100 | –
3 | O=C1c2ccccc2-c2nc(-c3cccs3)cc3c2c1nc1ccccc13 | 29.2 | 63.5 | – | 20.4 | 37.5 | 36.8 | 9.39 | 4.51 | > 100 | > 100 | > 100 | – | > 100 | > 100 | 19.3 | > 100 | 34.5 | 92.5 | 83.5
4 | O=C(c1ccc(-c2ccccc2)cc1)N(Cc1cccnc1)C(=S)N(Cc1cccnc1)C(=O)c1ccc(-c2ccccc2)cc1 | > 100 | > 100 | – | > 100 | > 100 | > 100 | > 100 | > 100 | > 100 | – | > 100 | > 100 | > 100 | > 100 | > 100 | – | – | – | > 100
5 | CC(=O)Oc1c(C)cc2c(c1C)C(C)(C)CN2C(=O)C(C)(C)C | > 100 | > 100 | > 100 | > 100 | > 100 | > 100 | > 100 | > 100 | > 100 | 31 | > 100 | > 100 | > 100 | > 100 | > 100 | > 100 | – | > 100 | > 100
6 | Nc1cc(N2CCOCC2)nc(=O)n1-c1ccccc1 | > 100 | > 100 | – | > 100 | > 100 | > 100 | > 100 | > 100 | > 100 | > 100 | > 100 | > 100 | > 100 | > 100 | > 100 | > 100 | > 100 | > 100 | –
7 | COc1ccc(OC)c2sc(N3C(=O)/C(=C/c4ccc(SC)cc4)N=C3c3ccccc3)nc12 | 48.1 | 53.9 | – | 42.5 | > 100 | > 100 | 53.6 | 37.6 | > 100 | 43.6 | 58.7 | > 100 | > 100 | 68.5 | > 100 | 80.5 | 60.6 | > 100 | –
8 | CCOC(=O)C1C(c2ccco2)C2(C#N)C(=N)OC1(C)C2(C#N)C#N (stereo not drawn) | > 100 | > 100 | > 100 | > 100 | > 100 | – | – | > 100 | > 100 | > 100 | > 100 | > 100 | > 100 | > 100 | > 100 | > 100 | – | > 100 | > 100
9 | Clc1ccc(C2ON=C(c3ccccc3)N2C23CC4CC(CC(C4)C2)C3)cc1Cl (stereo not drawn) | > 10 | > 10 | > 10 | > 10 | > 10 | > 10 | > 10 | > 10 | > 10 | > 10 | > 10 | > 10 | > 10 | > 10 | > 10 | > 10 | – | > 10 | > 10
10 | Cc1ccc2c(=O)cc(-c3cc4ccccc4s3)[nH]c2n1 | > 100 | > 100 | 97.2 | > 100 | > 100 | > 100 | > 100 | > 100 | > 100 | 67.6 | – | – | > 100 | > 100 | > 100 | > 100 | – | > 100 | > 100
11 | O=C(N/C(=C\NC1=NCCS1)C(=O)N1CSC[C@@H]1C(=O)O)c1ccccc1 | > 100 | > 100 | > 100 | > 100 | > 100 | > 100 | > 100 | > 100 | > 100 | > 100 | > 100 | > 100 | > 100 | > 100 | > 100 | > 100 | – | – | –
12 | CCOC(=O)CCC(NC(=O)C(CCC(=O)OCC)NC(=O)C(Cc1ccc([N+](=O)[O-])cc1)NC(C)=O)C(=O)NNC(=O)OC(C)(C)C (stereo not drawn) | > 100 | > 100 | 32.9 | > 100 | > 100 | > 100 | – | – | – | > 100 | – | > 100 | > 100 | > 100 | > 100 | > 100 | – | > 100 | –
13 | O=C1CSC(c2c[nH]c3ccccc23)N1c1cccc([N+](=O)[O-])c1 (stereo not drawn) | > 100 | > 100 | > 100 | > 100 | > 100 | > 100 | > 100 | > 100 | > 100 | > 100 | > 100 | – | > 100 | > 100 | > 100 | > 100 | > 100 | > 100 | > 100
14 | N=C1/C(=C/c2ccco2)C(=O)N=C2SC=NN12 | > 100 | > 100 | > 100 | > 100 | > 100 | > 100 | > 100 | > 100 | > 100 | > 100 | > 100 | – | > 100 | > 100 | > 100 | > 100 | > 100 | > 100 | > 100
15 | COC1CC(=O)C2C(=O)N(c3ccccc3)C(=O)C23C(C(=O)c2ccccc2)=C(C)NC13O (stereo not drawn) | 16.7 | > 100 | – | 72.2 | 25.1 | 23.6 | 8.12 | 40.9 | 54 | – | 21.8 | 47.7 | 59.9 | 51.1 | 31.3 | – | – | 27.5 | 6.3
16 | COc1c(N2CCCCC2)c2c(=O)c3ccccc3oc2c2cc(C)oc12 | > 100 | > 100 | 70 | 63.9 | 18.3 | > 100 | > 100 | > 100 | > 100 | 42.9 | > 100 | 61.6 | 89.1 | > 100 | 68.3 | > 100 | – | – | –
17 | CCCCC1CCCCCCc2[nH]c(/C=C3\N=C(c4ccc[nH]4)C=C3OC)cc21 (stereo not drawn) | 1.11 | 0.0354 | 1.11 | 1.35 | 1.39 | 0.492 | < 0.0224 | 0.403 | 7.37 | 0.638 | 1.13 | 1.86 | 1.73 | 8.65 | < 0.0177 | 0.0443 | – | 1.29 | 1.38
18 | Cc1ccc(N/C(=C(/C(Cl)=C(Cl)Cl)[N+](=O)[O-])n2nnc3ccccc32)cc1 | > 100 | 37.3 | – | 38.1 | 28.4 | 33.8 | 34.3 | 40.2 | 35.8 | 35.4 | 31.3 | – | 39.5 | 33.9 | – | > 100 | – | – | –
19 | O=S(Nc1ccccc1)c1ccccc1Oc1ccccc1 (stereo not drawn) | > 100 | > 100 | > 100 | > 100 | > 100 | > 100 | > 100 | > 100 | – | > 100 | 35.6 | – | 79.1 | > 100 | – | > 100 | > 100 | 12.6 | > 100
20 | CCC(C#N)NCc1ccc(CNC(C#N)CC)cc1 (stereo not drawn) | > 100 | > 100 | > 100 | > 100 | > 100 | > 100 | > 100 | > 100 | > 100 | – | > 100 | > 100 | > 100 | > 100 | > 100 | > 100 | – | > 100 | > 100
21 | Cn1cc(S(=O)(=O)NC(=O)Nc2ccc(Cl)cc2)c(=O)c2ccc(Cl)cc21 | > 100 | > 100 | > 100 | > 100 | – | > 100 | > 100 | > 100 | > 100 | > 100 | > 100 | – | > 100 | > 100 | > 100 | > 100 | > 100 | > 100 | 41.4
22 | Nc1nc(N)c2c(CCc3ccc(C(=O)N[C@@H](CCC(=O)O)C(=O)O)cc3)ccnc2n1 | – | > 100 | > 100 | > 100 | > 100 | > 100 | > 100 | > 100 | > 100 | > 100 | > 100 | > 100 | > 100 | > 100 | > 100 | > 100 | > 100 | > 100 | > 100
23 | Cc1cccc(C)c1NC(=O)C(=O)C(c1ccccc1Cl)S(=O)(=O)Cc1ccccc1Cl (stereo not drawn) | > 100 | > 100 | 80.2 | > 100 | > 100 | > 100 | > 100 | > 100 | > 61 | > 44.1 | 39.2 | – | > 100 | > 92 | > 100 | > 100 | > 100 | > 100 | > 100
24 | O=C(O)COc1cc(-c2ccccc2F)nc2cc3c(cc12)OCO3 | > 100 | > 100 | > 100 | > 100 | > 100 | > 100 | > 100 | > 100 | > 100 | > 100 | > 100 | – | > 100 | – | > 100 | > 100 | > 100 | > 100 | –
25 | CC(C)[C@H](NC(=O)[C@H](C(C)C)N(Cc1ccccc1)Cc1ccccc1)C(=O)N(C)[C@H](C(=O)N1CCC[C@H]1C(=O)N(C)[C@H](C)C(=O)NCc1ccc2c(c1)OCO2)C(C)C (Bn2Val-V[NMeV]P[dNMeA]-NHPiperonyl) | 7.55 | > 100 | – | 49.4 | – | > 100 | 57.9 | > 96.4 | > 100 | – | 11.5 | – | > 100 | > 100 | > 74.2 | > 100 | – | > 100 | > 100
26 | c1cc2c(cc1NC1=NCCO1)CCCC2 | 41.5 | 39.9 | 14.2 | 3.18 | 3.8 | 27.2 | 16.8 | 4.1 | 27.1 | 35.3 | 6.25 | 9.74 | 47 | > 84.2 | 16.5 | 9.67 | – | 23.5 | 18
27 | CCOc1cc(/C=N\O)cc(/C=N/O)c1O | 25 | > 100 | 30.5 | > 100 | 50.1 | > 100 | > 100 | > 100 | > 100 | 57.6 | 61.1 | 51.1 | > 100 | > 100 | > 100 | 99 | > 100 | – | –
